Measurements published in patent US20230226176A1, “NOVEL IMMUNE ADJUVANT AND VACCINE COMPOSITION INCLUDING THE SAME” (REPUBLIC OF KOREA (ANIMAL AND PLANT […]), priority 2020, published 2023).

Experiments:
[1] = test system: FMDV; design: species or system C57BL/6 mice; conditions: mouse, in vivo
[2] = test system: SP antibodies in serum; design: species or system C57BL/6 mice; conditions: mouse, in vivo
[3] = test system: porcine naive PBMCs; assay type: cell-based, pigs
[4] = test system: porcine Mo-DCs; assay: Inhibition of phagocytosis by cytochalasin D, cytokine ELISA in Mo-DCs; conditions: 5 μg/mL CytD 45 min before 1 μg/mL antigen
[5] = test system: porcine Mo-MΦs; assay: Inhibition of phagocytosis by cytochalasin D, cytokine ELISA in Mo-MΦs
[6] = test system: porcine PBMCs; assay type: cell-based, pigs; conditions: 12 hours
[7] = test system: porcine Mo-DCs; assay type: cell-based, pigs
[8] = test system: porcine Mo-MΦs; assay type: cell-based, pigs

**Q.** For `Nc1nc2ncc(C=O)nc2c(=O)[nH]1` [6-Formylpterin (F), 6-formylpterin], which VN titers [1] is on record?
**A.** The VN titers was “high levels”.

**Q.** What about the “antibody titers measured by SP-O ELISA” value [2] of the same molecule?
**A.** Its value is “increased”.

**Q.** What about the “Cell proliferation, rank order” value [3] of the same molecule?
**A.** The value was “>antigen+T cell agonist (R)”.

**Q.** With `C=C1[C@@H](C)[C@H]2[C@H](Cc3ccccc3)NC(=O)[C@]23[C@H](OC(C)=O)/C=C/[C@@](C)(O)C(=O)[C@@H](C)C/C=C/[C@H]3[C@@H]1O` [CytD, cytochalasin D] as the molecule, how does the “expression of cytokine when antigen is co-cultured after CytD treatment” value [4] read?
**A.** The value was “significantly suppressed”.

**Q.** What about the “expression of cytokine when antigen is co-cultured after CytD treatment” value ([5]; 5 μg/mL CytD 45 min before 1 μg/mL antigen) of the same molecule?
**A.** The value was “significantly suppressed”.

**Q.** And the “IL-10 expression after CytD treatment” value ([5]; not significantly different from pretreatment levels)?
**A.** The value was “slightly suppressed”.

**Q.** Which “increase of neutralizing antibody (VN titers)” value (shortened to “increase”) [1] does the source give for `C/C(=C\COP(=O)([O-])OP(=O)([O-])[O-])CO.[Li+].[Li+].[Li+]` [HMP (H), (E)-1-hydroxy-2-methyl-2-butenyl 4-pyrophosphate lithium salt] here?
**A.** The value was “approximately 100 fold”.

**Q.** And the “antibody titers measured by SP-O ELISA compared to the control” value (“antibody titers … compared to the control” below) [2]?
**A.** Its value is “significantly higher”.

**Q.** What about the “Cell proliferation, rank order” value [3] of the same molecule?
**A.** Its value is “>antigen+iNKT cell agonist (G)”.

**Q.** For `C=C(C)CCOP(=O)([O-])OP(=O)([O-])[O-].[Li+].[Li+].[Li+]` [IPP (I), Isopentenyl pyrophosphate trilithium salt], which VN titers [1] is on record?
**A.** Its VN titers is “highest”.

**Q.** And the “increase” value [1]?
**A.** Its value is “approximately 100 fold”.

**Q.** What about the “antibody titers … compared to the control” value [2] of the same molecule?
**A.** Its value is “significantly higher”.

**Q.** What about the “Cell proliferation, rank order” value [3] of the same molecule?
**A.** The value was “>antigen alone”.

**Q.** `CCCCCCCCCCCCCCCCCCCCCCCCCC(=O)N[C@@H](CO[C@H]1O[C@H](CO)[C@H](O)[C@H](O)[C@H]1O)[C@H](O)[C@H](O)CCCCCCCCCCCCCC` [α-Gal (G), α-galactosyl ceramide] was tested. Which VN titers [1] did it give?
**A.** Its VN titers is “highest”.

**Q.** And the “increase” value [1]?
**A.** Its value is “approximately 100 fold”.

**Q.** And the “antibody titers … compared to the control” value [2]?
**A.** The value was “significantly higher”.

**Q.** What about the “Cell proliferation, rank order” value [3] of the same molecule?
**A.** The value was “>antigen+MAIT cell agonist (F)”.

**Q.** What about the “IL23A and IL23R expression” value [6] of the same molecule?
**A.** The value was “specifically highly expressed”.

**Q.** How did the IL-1β [7] turn out when TNFα was run?
**A.** Its IL-1β is 432.97.

**Q.** And the IL-6 [7]?
**A.** Its IL-6 is 201.33.

**Q.** And the IL-10 [7]?
**A.** Its IL-10 is 10.85.

**Q.** And the IL-12/23p40 [7]?
**A.** Its IL-12/23p40 is 135.67.

**Q.** And the TNFα [7]?
**A.** The TNFα was 74.00.

B1: IL-4: rpIL-4 (R&D Systems, 20 ng/mL) for M2 MΦ polarization (protein, UniProt Q04745 25-133, looked up)
Interleukin-4: HKCDITLQEIIKTLNILTARKNSCMELPVTDVFAAPENTTEKETFCRASTVLRHIYRHHTCMKSLLSGLDRNLSSMANMTCSVHEAKKSTLKDFLERLKTIMKEKYSKC
**Q.** How did the IL-1β [8] turn out when B1 was run?
**A.** Its IL-1β is 223.43.

**Q.** And the IL-10 [8]?
**A.** The IL-10 was 1.88.

**Q.** What about the IL-12/23p40 [8] of the same molecule?
**A.** Its IL-12/23p40 is 29.00.
